From US20230339915A1 (Vertex Pharmaceuticals Incorporated, priority 2020, published 2023)

What was measured:
[1] = biological target: purified Z-AAT protein from human plasma (Homo sapiens (Human), UniProt P01009, E366K); assay: Biochemical Assay (Z-AAT Elastase Activity Assay); conditions: purified Z-AAT pre-incubated with compound 1 hour, then human neutrophil elastase and fluorescent substrate
From the text: B. Biochemical Assay (Z-AAT Elastase Activity Assay)
This assay measured the modulation of Compounds 1-227 on Z-AAT SERpIN activity using purified Z-AAT protein and purified human neutrophil elastase (hNE). Normally, when active monomeric Z-AAT encounters a protease such as trypsin or elastase, it forms a 1:1 covalent “suicide” complex in which both the AAT and protease are irreversibly inactivated. However, compounds binding to Z-AAT can lead to a decrease in SERpIN activity. In such cases, when a protease encounters compound-bound Z-AAT, the protease cleaves and inactivates Z-AAT without itself being inactivated.
Reagents • PBS buffer (media prep)+0.01% BRIJ35 detergent (Calbiochem catalog #203728) Opti-MEM media (Fisher 11058-021) • Human neutrophil elastase (hNE, Athens Research #16-14-051200) • 3.4 μM stock (0.1 mg/mL) prepared in 50 mM Na Acetate, pH 5.5, 150 mM NaCl, stored at −80° C. • Elastase substrate V (ES V, fluorescent peptide substrate MeOSuc-Ala-Ala-Pro-Val-AMC, Calbiochem catalog #324740) • 20 mM stock in DMSO, stored at −20° C. • Purified Z-AAT protein from human plasma; • 12.9 μM (0.67 mg/mL) Z-AAT Vertex Cambridge Sample 4942, from patient • #061-SSN, stored at −80 C
Plates • Corning 4511 (384 well black low volume)
Instruments • PerkinElmer® EnVision™
Pre-Incubation of Z-AAT with Compounds • 1. 7.5 μL of Z-AAT (20 nM) was incubated with compounds 1-227 in a GCA plate for 1 hour at room temperature
Addition of hNE • 1. 7.5 ul of HNE solution (3 nM in PBS+0.01% BRIJ35) added into GCA plate • 2. Incubate plate for 30 minutes to allow Z-AAT/HNE suicide complex formation.
Addition of Substrate and Read Plate on PE Envision • 1. 7.5 μL of substrate (300 μM solution of elastase substrate (ES V) in PBS+0.01% BRIJ35) dispensed per well into GCA plate • 2. Immediately read on Envision.

[2] = biological target: NL20 human bronchial epithelial cells expressing human Z-AAT (Homo sapiens (Human), UniProt P01009, E366K); assay: AAT Function Assay (MSD Assay NL20-SI Cell Line); assay type: cell-based; conditions: functionally active AAT (AAT-hNE complex, MSD) in supernatant of NL20 cells expressing human Z-AAT; read-out: NL20 Functional EC50
NL20 human bronchial epithelial cells expressing human Z-AAT, sequence (P01009 25-418 E366K limits assumed): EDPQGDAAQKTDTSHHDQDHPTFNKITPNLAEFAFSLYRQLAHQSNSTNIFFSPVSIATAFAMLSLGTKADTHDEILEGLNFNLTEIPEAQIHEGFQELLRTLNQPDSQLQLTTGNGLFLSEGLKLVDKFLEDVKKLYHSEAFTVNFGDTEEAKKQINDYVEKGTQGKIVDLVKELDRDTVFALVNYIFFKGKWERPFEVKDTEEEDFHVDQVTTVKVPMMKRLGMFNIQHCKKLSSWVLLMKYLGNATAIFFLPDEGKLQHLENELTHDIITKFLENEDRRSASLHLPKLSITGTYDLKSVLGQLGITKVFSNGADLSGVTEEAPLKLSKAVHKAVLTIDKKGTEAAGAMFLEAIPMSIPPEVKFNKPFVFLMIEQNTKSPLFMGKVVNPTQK
Protocol: A. AAT Function Assay (MSD Assay NL20-SI Cell Line)
Alpha-1 antitrypsin (AAT) is a SERpIN (serine protease inhibitor) that inactivates enzymes by binding to them covalently. This assay measured the amount of functionally active AAT in a sample in the presence of the disclosed Compounds 1-227 by determining the ability of AAT to form an irreversible complex with human neutrophil Elastase (hNE). In practice, the sample (cell supernatant, blood sample, or other) was incubated with excess hNE to allow AAT-Elastase complex to be formed with all functional AAT in the sample. This complex was then captured to a microplate coated with an anti-AAT antibody. The complex captured to the plate was detected with a labeled anti-Elastase antibody and quantitated using a set of AAT standards spanning the concentration range present in the sample. Meso Scale Discovery (MSD) plate reader, Sulfo-tag labeling, and microplates were used to provide high sensitivity and wide dynamic range.
Instrument(S): • Meso Sector S600 • Bravo • Washer dispenser • Multidrop Combi
Day 1 Cell Culture • 1. Harvest NL20 human bronchial epithelial cells expressing human Z-AAT in OptiMEM™ containing Pen/Strep (P/S) • 2. Seed at 16,000 cells/well in 30 μL (384 well plate) • 3. Centrifuge plates briefly up to speed (1200 rpm) and place into 37° C. incubator overnight
Day 2: Compound Addition and Coating Plates with Capture Antibody
Compound Addition: • 1. Dispense 40 μL of OptiMEM™ (P/S) with doxycycline (1:1000 stock=0.1 μM final) to each well of the compound plate using a multidrop Combi in hood • 2. Remove cell plate from incubator, flip/blot and take immediately to Bravo to transfer compounds • 3. Return plates to incubator overnight
Coat MSD Plates • 1. Dilute capture antibody (Polyclonal Goat anti-AAT) to 5 μg/mL (1:200) in PBS (no BSA). • 2. Dispense 25 μL of diluted capture antibody into all wells of MSD 384-well High Bind plate using the Multidrop equipped with a standard cassette. • 3. Incubate overnight at 4° C.
Prepare Blocker A (BSA) Solutions • 1. Prepare solution of 5% MSD Blocker A (BSA) following the manufacturer's instructions. • 2. Further dilute the 5% MSD Blocker A in PBS to 1% (Blocker A) as needed.
Block Plates • 1. Wash plate 1× with 50 μL Wash buffer (PBS+0.5% Tween 20), and adds 35 μL 5% Block A buffer to block non-specific binding on washer dispenser • 2. Rotate plates on shaker for 1 hour at 600 rpm
Prepare M-AA T Standards • 1. Dilute M-AAT stock to 1.6 μg/mL in 1% BSA Blocker A (Stock in −70° C.); then prepare 12×1:2 serial dilutions in 1% Blocker A • 2. The top starting final concentration on MSD plate is 320 ng/mL. These dilutions correspond to a final concentration of 320, 160, 80, 40, 20, 10, 5, 2.5, 1.25, 0.625, 0.312, 0.156 ng/mL.
Dilution Plate • 1. Add 80 μL of 1% Assay buffer to all wells except columns 1/24 (standards) with Multidrop Combi • 2. Add diluted standards to columns 1 and 24 • 3. Centrifuge dilution plates 1200 rpm briefly
Cell Plate • 1. Aspirate columns which will have the standards from the cell plates in the hood using 16-pin aspirator
Prepare Human Neutrophil Elastase (hNE) • 1. Prepare 1 μg/mL Human Neutrophil Elastase by diluting in 1% Blocker A. • a. Small 100 μg vial—add 1 mL PBS (100 μg/mL) • i. This can then be diluted 1:100 in 1% Assay Buffer for a final 1 μg/mL concentration
MSD—add hNE (20 μL/well) • 1. After the MSD plate has blocked for at least 1 hour, wash plate 1× with 50 μL Wash buffer (PBS+0.5% Tween 20) and then add 20 μL hNE to each well
Bravo—Cell Plate—Dilution Plate—MSD Plate
Using the Bravo aspirate 10 μL from the cell plate, transfer to the dilution plate (9-fold dilution) • 1. Mix 25 μL 3×, then aspirate 5 μL, transfer to MSD plate (5-fold dilution) • 2. Mix 10 μL 3×. Total dilution is 45 fold. • 3. Shake plates at 600 rpm for 1.5 hours
Add Functional Detection hNE Antibody • 1. Wash plate 1× with wash buffer • 2. […]

purified Z-AAT protein from human plasma, sequence (P01009 25-418 E366K limits assumed): as above

IC50 [1] [nM] | EC50 [2] [nM] | SMILES
> 30000 | > 2000 | Cc1cc(-n2c(C(C)C)c([C@H]3CC[C@@H](C(=O)O)C3)c3cc(O)ccc32)ccc1F (racemic) [Compound 74]
> 5000 | 500 to 2000 | Cc1cc(-n2c(C(C)C)c([C@H]3CC[C@H](C(=O)O)C3)c3cc(O)ccc32)ccc1F (racemic) [Compound 79]
> 30000 | 500 to 2000 | Cc1cc(-n2c(C3CCOCC3)c([C@H]3CCC[C@@H](CC(=O)O)C3)c3cc(O)ccc32)ccc1F (racemic) [Compound 105, cis-2-(3-(1-(4-fluoro-3-methylphenyl)-5-hydroxy-2-(tetrahydro-2H-pyran-4-yl)-1H-indol-3-yl)cyclohexyl)acetic acid]
> 30000 | > 2000 | Cc1cc(-n2c(C3CCOCC3)c([C@H]3C[C@@H]3C(=O)O)c3cc(O)ccc32)ccc1F (relative stereo) [Compound 124, trans-2-[1-(4-fluoro-3-methyl-phenyl)-5-hydroxy-2-tetrahydropyran-4-yl-indol-3-yl]cyclopropanecarboxylic acid]
> 30000 | 500 to 2000 | O=C(O)[C@H]1CCC[C@@H](c2c(C3CCOCC3)n(-c3ccc(F)c(F)c3)c3ccc(O)cc23)C1 (relative stereo) [Compound 136, cis-3-(1-(3,4-difluorophenyl)-5-hydroxy-2-(tetrahydro-2H-pyran-4-yl)-1H-indol-3-yl)cyclohexane-1-carboxylic acid]
> 30000 | – | Cc1cc(-n2c(C3CCOCC3)c([C@H]3CC[C@H](C(=O)O)CC3)c3cc(O)ccc32)ccc1F [Compound 1, trans-4-(1-(4-fluoro-3-methylphenyl)-5-hydroxy-2-(tetrahydro-2H-pyran-4-yl)-1H-indol-3-yl)cyclohexane-1-carboxylic acid]
> 30000 | 500 to 2000 | Cc1cc(-n2c(C3CCOCC3)c(C3CCCC(C(=O)O)C3)c3cc(O)ccc32)ccc1F (stereo not shown) [Compound 3]
> 30000 | > 2000 | Cc1cc(-n2c(C3CCOCC3)c(CC34CC(C(=O)O)(C3)C4)c3cc(O)ccc32)ccc1F [Compound 4]
> 30000 | > 2000 | Cc1cc(-n2c(C3CCOCC3)c(C[C@H]3CC[C@H](C(=O)O)CC3)c3cc(O)ccc32)ccc1F [Compound 5]
> 30000 | > 2000 | Cc1cc(-n2c(C3CCOCC3)c(C[C@H]3C[C@H](C(=O)O)C3)c3cc(O)ccc32)ccc1F [Compound 7]

Second part, the compound before the results:

SMILES | IC50 [1] [nM] | EC50 [2] [nM]
Cc1cc(-n2c(C(C)C)c([C@@H]3COCC3C(=O)O)c3cc(O)ccc32)ccc1F (mixture of isomers) [Compound 82] | > 30000 | > 2000
Cc1cc(-n2c(C(C)C)c([C@@H]3COC[C@@H]3C(=O)O)c3cc(O)ccc32)ccc1F (racemic) [Compound 83] | > 30000 | > 2000
CCC(O)c1c(C#N)c2cc(O)ccc2n1-c1ccc(F)cc1 (racemic) [Compound 189, 1-(4-fluorophenyl)-5-hydroxy-2-(1-hydroxypropyl)indole-3-carbonitrile] | > 30000 | > 2000
CCC(OC)c1c(C#N)c2cc(O)ccc2n1-c1ccc(F)cc1 (racemic) [Compound 190, 1-(4-fluorophenyl)-5-hydroxy-2-(1-methoxypropyl)indole-3-carbonitrile] | > 5000 | 500 to 2000
Cc1cc(-n2c(C(C)C)c(CC(C)C(=O)O)c3cc(O)ccc32)ccc1F (single isomer, unassigned) [Compound 101] | > 30000 | > 2000
Cc1cc(-n2c(C(C)C)c(CC(C)C(=O)O)c3cc(O)ccc32)ccc1F (single isomer, unassigned) [Compound 102] | > 30000 | > 2000
Cc1cc(-n2c(C(C)C)c(C3CC(F)(C(=O)O)C3)c3cc(O)ccc32)ccc1F (single isomer, unassigned) [Compound 150] | > 5000 | 500 to 2000
Cc1cc(-n2c(C(C)C)c(C3CC(C(=O)O)C3)c3cc(O)ccc32)ccc1F (stereo not shown) [Compound 6] | > 30000 | > 2000
Cc1cc(-n2c(C(C)C)c([C@H]3C[C@@H]3C(=O)O)c3cc(O)c(F)cc32)ccc1F [Compound 129] | – | 500 to 2000
Cc1cc(-n2c(C(C)C)c(C3CC3(C)C(=O)O)c3cc(O)ccc32)ccc1F (stereo not shown) [Compound 130] | – | 500 to 2000
Cc1cc(-n2c(C(C)C)c(-c3ccc(C(=O)O)cc3)c3cc(O)ccc32)ccc1F [Compound 167] | – | < 500
Cc1cc(-n2c(C(C)C)c(-c3ccc(C(=O)O)cc3C)c3cc(O)ccc32)ccc1F [Compound 170] | – | 500 to 2000
Cc1c(C#N)c2cc(O)ccc2n1-c1ccc(F)cc1 [Compound 182, 1-(4-fluorophenyl)-5-hydroxy-2-methyl-1H-indole-3-carbonitrile] | – | > 2000
Cc1c(C(C)C#N)c2cc(O)ccc2n1-c1ccc(F)cc1 (stereo not shown) [Compound 183, 2-(1-(4-fluorophenyl)-5-hydroxy-2-methyl-1H-indol-3-yl)propanenitrile] | – | > 2000
Cc1cc(-n2c(C(C)C)c([C@H]3C[C@H](c4n[nH]c(=O)o4)C3)c3cc(O)ccc32)ccc1F [Compound 221, Trans-5-[3-[1-(4-fluoro-3-methyl-phenyl)-5-hydroxy-2-isopropyl-indol-3-yl]cyclobutyl]-3H-1,3,4-oxadiazol-2-one] | – | > 2000
Cc1cc(-n2c(C(C)C)c([C@H]3C[C@@H](c4n[nH]c(=O)o4)C3)c3cc(O)ccc32)ccc1F [Compound 222, cis-5-[3-[1-(4-fluoro-3-methyl-phenyl)-5-hydroxy-2-isopropyl-indol-3-yl]cyclobutyl]-3H-1,3,4-oxadiazol-2-one] | – | > 2000
